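Step 1: Grow cells in 96-well plates. Step 2: Expose to compound for 48 hours at 5 concentrations. Step 3: Interpolate endpoints linearly; if unreached, use highest concentration. Abbreviation: GI50, concentration required for 50% inhibition of growth.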 Activity calls are given as the source filed them. Cut-off read from the data, not from the text of the source: active = GI50 up to about 1.1 µM and inactive = higher.
Experiments:
Assay in all cases: growth of human tumour cells (NCI), 48 h
OVCAR-8 = system: OVCAR-8
U-251 = system: U-251
CCRF-CEM = system: CCRF-CEM
MCF7 = system: MCF7
SF-295 = system: SF-295
RXF 393 = system: RXF 393
ACHN = system: ACHN
COLO 205 = system: COLO 205
UACC-62 = system: UACC-62
NCI-H460 = system: NCI-H460
OVCAR-5 = system: OVCAR-5
PC-3 = system: PC-3
K562 = system: K562
MDA-MB-231 = system: MDA-MB-231
LOX IMVI = system: LOX IMVI
SK-MEL-28 = system: SK-MEL-28
SR = system: SR
HCT-15 = system: HCT-15
Hs-578T = system: Hs-578T
786-0 = system: 786-0
DU-145 = system: DU-145
A498 = system: A498
NCI-H23 = system: NCI-H23
UACC-257 = system: UACC-257
EKVX = system: EKVX
A549 = system: A549
SF-268 = system: SF-268
SNB-19 = system: SNB-19
T47D = system: T47D
IGROV-1 = system: IGROV-1
CAKI-1 = system: CAKI-1
SF-539 = system: SF-539
RPMI-8226 = system: RPMI-8226
HT-29 = system: HT-29
SW-620 = system: SW-620
UO-31 = system: UO-31
SK-OV-3 = system: SK-OV-3
MDA-MB-435 = system: MDA-MB-435
M14 = system: M14
BT-549 = system: BT-549
SN12C = system: SN12C
HOP-92 = system: HOP-92
SNB-75 = system: SNB-75
HL-60 = system: HL-60
HCC 2998 = system: HCC 2998
OVCAR-4 = system: OVCAR-4
Malme-3M = system: Malme-3M
NCI/ADR-RES = system: NCI/ADR-RES
HOP-62 = system: HOP-62
MOLT-4 = system: MOLT-4
MDA-N = system: MDA-N
OVCAR-3 = system: OVCAR-3
SK-MEL-5 = system: SK-MEL-5
NCI-H522 = system: NCI-H522
TK-10 = system: TK-10
SK-MEL-2 = system: SK-MEL-2
NCI-H226 = system: NCI-H226
HCT-116 = system: HCT-116
KM12 = system: KM12

Measured: GI50

CC(=O)OC1CCn2c1nc1c2C(=O)C=C(N2CC2)C1=O (configuration not stated)
active: OVCAR-8 0.402 µM | U-251 0.218 µM | CCRF-CEM < 0.01 µM | MCF7 0.173 µM | RXF 393 0.0748 µM | ACHN 0.0354 µM | COLO 205 0.0697 µM | UACC-62 0.0697 µM | OVCAR-5 0.774 µM | PC-3 0.931 µM | K562 0.394 µM | LOX IMVI 0.0719 µM | SK-MEL-28 0.0314 µM | SR 0.0953 µM | Hs-578T 0.524 µM | 786-0 0.108 µM | A498 0.218 µM | NCI-H23 0.269 µM | UACC-257 0.292 µM | EKVX 1.02 µM | SF-268 0.185 µM | T47D 0.745 µM | IGROV-1 0.449 µM | CAKI-1 0.032 µM | SF-539 0.22 µM | RPMI-8226 0.251 µM | HT-29 0.693 µM | SW-620 < 0.0211 µM | UO-31 0.103 µM | MDA-MB-435 0.476 µM | M14 0.0519 µM | SN12C 0.65 µM | HOP-92 0.378 µM | SNB-75 0.174 µM | HL-60 0.17 µM | OVCAR-4 0.0746 µM | Malme-3M 0.0311 µM | NCI/ADR-RES 0.402 µM | MOLT-4 0.033 µM | MDA-N 0.332 µM | OVCAR-3 0.215 µM | SK-MEL-5 0.142 µM | NCI-H522 0.0112 µM | TK-10 0.292 µM | SK-MEL-2 0.2 µM | HCT-116 0.153 µM
inactive: SF-295 1.81 µM | NCI-H460 1.15 µM | MDA-MB-231 1.91 µM | DU-145 3.31 µM | A549 1.41 µM | SNB-19 2.88 µM | SK-OV-3 2.15 µM | BT-549 1.27 µM | HCC 2998 1.45 µM | HOP-62 2.11 µM | NCI-H226 1.86 µM
0.403 µM: HCT-15

Oc1cc(Cl)cc2cc(Cl)cnc12
inactive: OVCAR-8 2.28 µM | U-251 2.42 µM | CCRF-CEM 1.78 µM | MCF7 3.4 µM | SF-295 1.92 µM | RXF 393 5.07 µM | ACHN 2.44 µM | COLO 205 31 µM | UACC-62 2.49 µM | NCI-H460 1.79 µM | OVCAR-5 17.5 µM | PC-3 2.94 µM | MDA-MB-231 3.56 µM | SK-MEL-28 5.12 µM | SR 1.56 µM | Hs-578T 22.1 µM | 786-0 23 µM | DU-145 6.47 µM | A498 12.5 µM | KM12 5.13 µM | NCI-H23 2.75 µM | UACC-257 3.73 µM | EKVX 2.85 µM | A549 3.22 µM | SF-268 1.14 µM | SNB-19 4 µM | T47D 3.34 µM | CAKI-1 12.9 µM | SF-539 3.24 µM | RPMI-8226 2.59 µM | HT-29 22.8 µM | SW-620 3.15 µM | UO-31 3.21 µM | SK-OV-3 30.8 µM | MDA-MB-435 2.87 µM | M14 3.3 µM | BT-549 4.73 µM | SN12C 2.3 µM | HOP-92 21.5 µM | SNB-75 5.35 µM | HCC 2998 25.1 µM | OVCAR-4 1.55 µM | Malme-3M 2.25 µM | NCI/ADR-RES 1.49 µM | HOP-62 7.41 µM | MOLT-4 2.89 µM | MDA-N 6.34 µM | SK-MEL-5 3.67 µM | NCI-H522 3.16 µM | TK-10 27.5 µM | NCI-H226 19.5 µM | HCT-116 2.67 µM
active: K562 0.989 µM | LOX IMVI 0.597 µM | IGROV-1 0.596 µM | HL-60 0.288 µM | OVCAR-3 0.582 µM
0.598 µM: HCT-15

CC(=O)O[C@H]1CC[C@@]2(C)C(=CC[C@@H]3[C@@H]2CC[C@]2(C)c4c(cc(C#N)c(=N)n4C(C)=O)C[C@@H]32)C1
inactive: OVCAR-8 16.7 µM | U-251 29 µM | CCRF-CEM 3.6 µM | MCF7 22.3 µM | SF-295 11.4 µM | RXF 393 22.6 µM | ACHN 20.1 µM | COLO 205 16.1 µM | UACC-62 15.7 µM | NCI-H460 16.4 µM | OVCAR-5 27.4 µM | PC-3 21.5 µM | K562 4.06 µM | MDA-MB-231 31.1 µM | LOX IMVI 16.7 µM | SK-MEL-28 18.7 µM | SR 23.8 µM | Hs-578T 25.5 µM | 786-0 20.5 µM | DU-145 27.1 µM | A498 30.5 µM | KM12 17.9 µM | NCI-H23 15.3 µM | UACC-257 19.1 µM | EKVX 15.9 µM | A549 23 µM | SF-268 27.9 µM | SNB-19 28 µM | T47D 17.6 µM | IGROV-1 22.2 µM | CAKI-1 30.8 µM | HT-29 17.9 µM | SW-620 19.4 µM | UO-31 22 µM | SK-OV-3 6.7 µM | MDA-MB-435 19.6 µM | M14 16.9 µM | BT-549 15.4 µM | SN12C 17.4 µM | HOP-92 14.7 µM | SNB-75 19.1 µM | HL-60 14.6 µM | HCC 2998 23.2 µM | OVCAR-4 18.7 µM | Malme-3M 17.2 µM | NCI/ADR-RES 17.2 µM | HOP-62 24.2 µM | MOLT-4 12.2 µM | MDA-N 21 µM | OVCAR-3 17.6 µM | SK-MEL-5 15.5 µM | NCI-H522 17.9 µM | TK-10 25.4 µM | NCI-H226 27.4 µM | HCT-116 14.8 µM
15.2 µM: HCT-15

Source: ChEMBL document CHEMBL1201862, “PubChem BioAssay data set” (2004)
